Results published in PubChem BioAssay (NCI).
Values joined by “and” are separate entries in the source; they are usually repeats but may differ in a detail not shown here. Identical values can stand only once.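 All cell lines were grown in 96-well plates and treated with compound for 48 hours. GI50: concentration for 50% inhibition of growth. At the TGI there is no net growth.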

Assays:
Assay in all cases: NCI-60 cell line screen, 48 h
[1] = test system: 786-0 renal
[2] = test system: A498 renal
[3] = test system: ACHN renal
[4] = test system: CAKI-1 renal
[5] = test system: EKVX NSCLC
[6] = test system: IGROV1 ovarian
[7] = test system: KM12 colon
[8] = test system: M14 melanoma
[9] = test system: NCI-H226 lung
[10] = test system: DU-145 prostate

Compound: CN(C)CC1CCCC/C1=N/O (configuration not stated)
- TGI [1]: > 100 µM
- TGI [2]: > 100 µM
- TGI [3]: > 100 µM
- TGI [4]: > 100 µM
- TGI [5]: > 100 µM
- TGI [6]: > 100 µM
- TGI [7]: > 100 µM
- TGI [8]: > 100 µM
- TGI [9]: > 100 µM

Compound: O=C1NC(=NCc2ccccc2)S/C1=C\c1ccc2ncccc2c1
- GI50 [1]: > 25 µM
- TGI [1]: > 25 µM
- GI50 [2]: > 25 µM
- TGI [2]: > 25 µM
- GI50 [3]: > 25 µM
- TGI [3]: > 25 µM
- GI50 [4]: > 25000 nM
- TGI [4]: > 25 µM
- GI50 [10]: > 25 µM
- TGI [10]: > 25 µM
- GI50 [6]: > 25 µM
- TGI [6]: > 25 µM
- GI50 [7]: > 25000 nM
- TGI [7]: > 25 µM
- GI50 [8]: > 25 µM
- TGI [8]: > 25 µM
- GI50 [9]: > 25 µM
- TGI [9]: > 25 µM

Compound: CN(C)CC1CCC/C1=N/OC(=O)c1ccccc1 (configuration not stated)
- TGI [1]: > 100 µM
- TGI [2]: > 100 µM
- TGI [3]: > 100 µM
- TGI [4]: > 100 µM
- TGI [6]: > 100 µM
- TGI [8]: > 100 µM
- TGI [9]: > 100 µM

Compound: CC(=O)OCc1ccc2c(c1)C(O)NC(=O)O2 (configuration not stated)
- TGI [1]: > 100 µM
- TGI [3]: > 100 µM
- TGI [4]: > 100 µM
- TGI [10]: > 100 µM
- TGI [5]: > 100 µM
- TGI [6]: > 100 µM
- TGI [7]: > 100 µM
- TGI [8]: > 100 µM
- TGI [9]: > 100 µM

Compound: COc1cc(-c2nn(-c3cccc(NC(=O)c4ccccc4)c3)cc2-c2ccncc2)ccc1Cl
- GI50 [1]: 1.1 µM
- TGI [1]: > 100 µM
- GI50 [2]: 0.197 µM
- TGI [2]: 1.35 µM
- GI50 [3]: 0.72 µM
- TGI [3]: > 100 µM
- GI50 [4]: 836 nM
- TGI [4]: > 40.5 µM
- GI50 [10]: 0.626 µM
- TGI [10]: 27.1 µM
- GI50 [6]: 0.572 µM
- TGI [6]: > 100 µM
- GI50 [7]: 467 nM
- TGI [7]: 96.9 µM
- GI50 [8]: 0.565 µM
- TGI [8]: 12.8 µM
- GI50 [9]: 3.3 µM
- TGI [9]: > 100 µM

Compound: COc1ccc2c(c1)[n+]([O-])c(C(N)=O)c(N)[n+]2[O-]
- TGI [1]: > 100 µM
- TGI [2]: > 100 µM
- TGI [3]: > 100 µM
- TGI [4]: > 100 µM
- TGI [5]: > 100 µM
- TGI [6]: > 100 µM
- TGI [7]: > 100 µM
- TGI [8]: > 100 µM
- TGI [9]: > 100 µM

Compound: Cc1ccc(S(=O)(=O)N2CCC2c2ccccc2)cc1 (configuration not stated)
- TGI [1]: > 100 µM
- TGI [2]: > 100 µM
- TGI [3]: > 100 µM
- TGI [5]: > 100 µM
- TGI [6]: > 100 µM
- TGI [7]: > 100 µM
- TGI [8]: > 100 µM
- TGI [9]: > 100 µM

Compound: C/C(CN1C(=O)c2ccccc2C1=O)=N\NS(=O)(=O)c1ccc(Cl)cc1
- TGI [1]: > 100 µM
- TGI [2]: > 100 µM
- TGI [3]: > 100 µM
- TGI [4]: > 100 µM
- TGI [5]: > 100 µM
- TGI [6]: > 100 µM
- TGI [7]: > 100 µM
- TGI [8]: > 100 µM
- TGI [9]: > 100 µM

Compound: Cc1nc(-c2nc(C)c(C(=O)NNC(=O)C[n+]3ccccc3)s2)sc1C(=O)NNC(=O)C[n+]1ccccc1
- TGI [1]: > 100 µM
- TGI [2]: > 100 µM
- TGI [3]: > 100 µM
- TGI [4]: 85.1 µM
- TGI [5]: > 100 µM
- TGI [6]: > 100 µM
- TGI [7]: > 100 µM
- TGI [8]: > 100 µM
- TGI [9]: > 100 µM

Compound: CCOC(=O)C1Sc2ccccc2N=C1C (configuration not stated)
- TGI [1]: > 100 µM
- TGI [2]: > 100 µM
- TGI [3]: > 100 µM
- TGI [5]: > 100 µM
- TGI [6]: > 100 µM
- TGI [7]: > 100 µM
- TGI [9]: > 100 µM

Compound: O=S1C(=c2ccc(=C3Sc4ccccc4S3)cc2)Sc2ccccc21 (configuration not stated)
- TGI [1]: 30.8 µM
- TGI [2]: 30.2 µM
- TGI [3]: 37.6 µM
- TGI [4]: > 91.1 µM
- TGI [5]: 34.2 µM
- TGI [6]: > 95.5 µM
- TGI [7]: 31.4 µM
- TGI [8]: 29 µM
- TGI [9]: 34 µM

Compound: O=C(NC1C=CCC2C(=O)N(c3ccccc3)C(=O)C12)OCc1ccccc1 (configuration not stated)
- TGI [1]: > 100 µM
- TGI [3]: > 100 µM
- TGI [4]: > 100 µM
- TGI [5]: > 100 µM
- TGI [6]: > 100 µM
- TGI [7]: > 100 µM
- TGI [8]: > 100 µM
- TGI [9]: > 100 µM

Compound: CCC(C)SC1SCC2C(=O)N(C)C3(CC3C)C(=O)OCC(NC(=O)c3nc4ccccc4cc3O)C(=O)NC(C)C(=O)N(C)C1C(=O)N(C)C1(CC1C)C(=O)OCC(NC(=O)c1nc3ccccc3cc1O)C(=O)NC(C)C(=O)N2C (configuration not stated)
- TGI [1]: 1.3 µM
- TGI [2]: 0.000492 µM
- GI50 [3]: 0.000296 µM
- TGI [3]: 0.221 µM
- GI50 [4]: 0.087 nM
- TGI [5]: 0.00538 µM
- TGI [6]: 3.54 µM
- GI50 [7]: 0.0524 nM
- TGI [7]: 0.000397 µM
- TGI [8]: 0.000846 µM and < 0.025 µM
- TGI [9]: 0.000892 µM

Compound: CNC(=O)NCCCC(NC(C)=O)C(=O)NCc1ccccc1 (configuration not stated)
- TGI [1]: > 100 µM
- TGI [2]: > 100 µM
- TGI [3]: > 100 µM
- TGI [4]: > 100 µM
- TGI [5]: > 100 µM
- TGI [6]: > 100 µM
- TGI [7]: > 100 µM
- TGI [8]: > 100 µM
- TGI [9]: > 100 µM

Compound: CN(C)C=Nc1nc(=O)n(C2CCC(CO)O2)cc1F (configuration not stated)
- TGI [1]: > 100 µM
- TGI [3]: > 100 µM
- TGI [4]: > 100 µM
- TGI [5]: > 100 µM
- TGI [7]: > 100 µM
- TGI [8]: > 100 µM
- TGI [9]: > 100 µM

Compound: COc1ccc(/C=C/COC(C)=O)cc1OC
- TGI [1]: > 100 µM
- TGI [3]: > 100 µM
- TGI [4]: > 100 µM
- TGI [5]: > 100 µM
- TGI [6]: > 100 µM
- TGI [7]: > 100 µM
- TGI [9]: > 100 µM

Compound: O=c1c2cccnc2ncn1CCN1CCCCC1
- TGI [1]: > 100 µM
- TGI [3]: > 100 µM
- TGI [4]: > 100 µM
- TGI [5]: > 100 µM
- TGI [6]: > 100 µM
- TGI [7]: > 100 µM
- TGI [8]: > 100 µM
- TGI [9]: > 100 µM

Compound: N#CC(C(=O)CCC(=O)Nc1ccc(Cl)c(Cl)c1)c1ccccc1 (configuration not stated)
- TGI [1]: > 100 µM
- TGI [2]: > 100 µM
- TGI [3]: > 100 µM
- TGI [4]: > 100 µM
- TGI [5]: > 100 µM
- TGI [6]: > 100 µM
- TGI [7]: > 100 µM
- TGI [8]: > 100 µM
- TGI [9]: > 100 µM

Compound: C[C@@]1(O)CC[C@]2(C)C3CCCC3[C@H]12 (some centres not stated)
- TGI [1]: > 100 µM
- TGI [2]: > 100 µM
- TGI [3]: > 100 µM
- TGI [4]: > 100 µM
- TGI [5]: > 100 µM
- TGI [6]: > 100 µM
- TGI [7]: > 100 µM
- TGI [8]: > 100 µM
- TGI [9]: > 100 µM

Compound: Cn1cc(-c2cc3c(N4CCN(c5ncc([C@@](C)(N)c6ccc(F)cc6)cn5)CC4)ncnn3c2)cn1
- GI50 [1]: 3.15 µM
- TGI [1]: > 100 µM
- GI50 [2]: 6.24 µM
- TGI [2]: > 100 µM
- GI50 [3]: 3.26 µM
- TGI [3]: > 100 µM
- GI50 [4]: 2630 nM
- TGI [4]: > 100 µM
- GI50 [10]: > 100 µM
- TGI [10]: > 100 µM
- GI50 [5]: 4.14 µM
- TGI [5]: > 100 µM
- GI50 [6]: 2.7 µM
- TGI [6]: > 100 µM
- GI50 [7]: 3490 nM
- TGI [7]: > 100 µM
- GI50 [8]: 4.42 µM
- TGI [8]: > 100 µM

Compound: CN1C(=O)C(=O)N2c3ccc(Cl)cc3C3(c4ccccc4)N=CC12O3 (configuration not stated)
- TGI [1]: 28.9 µM
- TGI [2]: 22.9 µM
- TGI [3]: 17.7 µM
- TGI [4]: 42.7 µM
- TGI [5]: 27.6 µM
- TGI [6]: 40 µM
- TGI [7]: 13.7 µM
- TGI [8]: 15 µM
- TGI [9]: 26.8 µM
